From ChEMBL document CHEMBL1133243, “Synthesis and antimicrobial activity of some isoindolin-1-ones derivatives” (2000) come the findings set out here.

A word on the MIC: it is the lowest concentration found to suppress growth. Higher therefore signals a need for much substance. A word on the Inhibition: it is the share of the control response that was lost under treatment. Low readings indicate a response near the control, high ones a response far below the control.

≈ marks a conversion by molar mass, not a printed value. Calls of active or inactive are those of the source. The calls are words filed in the database; no cut-off is given here.

The subject of one test is Kocuria rosea. The experiment in a line: Minimum inhibitory concentration against Micrococcus roseus. Type of test: functional.
The test system of test [1] is Staphylococcus aureus. Kind of test: Minimum inhibitory concentration against Staphylococcus aureus. Type of test: functional.
Another test concerns Pseudomonas aeruginosa. Kind of test: Minimum inhibitory concentration against Pseudomonas aeruginosa. Type of test: functional.
The nature of test [2]: Antimicrobial activity against aspergillus sp and Candida albicans; Inactive. The test is classed as functional.
A further test has as its system Escherichia coli. The experiment in a line: Minimum inhibitory concentration against Escherichia coli. The test is classed as functional.
Test [3] deals with Bacteria. The experiment in a line: Compound tested for in vitro antimicrobial activity against gram positive and gram negative bacteria; Active. Type of test: functional, organism-based.
Test [4] has as its system Bacillus subtilis. Kind of test: Minimum inhibitory concentration against Bacillus subtilis. Type of test: functional.
Test [5] relates to Bacteria. Kind of test: Antimicrobial activity against gram positive and gram negative bacteria; Active. Type of test: functional, organism-based.
Test [6] concerns Staphylococcus aureus. Kind of test: Compound was evaluated for minimum inhibitory concentration against Staphylococcus aureus. Type of test: functional.
The test system of test [7] is Bacillus subtilis. Kind of test: Compound was evaluated for minimum inhibitory concentration against Bacillus subtilis;Zero growth inhibition. The test is classed as functional, organism-based.
For test [8], the system named is Staphylococcus aureus. Kind of test: Compound was evaluated for minimum inhibitory concentration against Staphylococcus aureus;Zero growth inhibition. Type of test: functional, organism-based.
The subject of test [9] is Bacteria. The experiment in a line: Antimicrobial activity against gram positive and gram negative bacteria; Inactive. Type of test: functional, organism-based.

Turning to `C[C@@H](C(=O)O)N1Cc2ccccc2C1=O`, the MIC in the test with Kocuria rosea was found to be 1620 µg/mL (≈ 7.89 mM); against Staphylococcus aureus [1], 1620 µg/mL (≈ 7.89 mM); in the test on Pseudomonas aeruginosa, 3600 µg/mL (≈ 17.5 mM); in the test with Escherichia coli it was 1620 µg/mL (≈ 7.89 mM); against Bacillus subtilis [4] it was 729 µg/mL (≈ 3.55 mM). In addition, the outcome in [2] was inactive. In the test on Bacteria [3], the result was Active.

Turning to `O=C(O)[C@H](c1ccccc1)N1Cc2ccccc2C1=O`, the outcome in the test with Bacteria [5] was Active. Also, the MIC against Kocuria rosea stood at 729 µg/mL (≈ 2.73 mM); against Pseudomonas aeruginosa, 3600 µg/mL (≈ 13.5 mM); in the test on Escherichia coli, 1620 µg/mL (≈ 6.06 mM); against Bacillus subtilis [4] it was 529 µg/mL (≈ 1.98 mM). Besides, the result in test [2] was inactive. The compound further gave an Inhibition in the test on Staphylococcus aureus [6] of 0%.

Consider `O=C1c2ccccc2C(O)N1Cc1ccccc1` (stereo not drawn), for which the outcome in the test with Bacteria [5] was Active. Moreover, the MIC against Kocuria rosea is 1620 µg/mL (≈ 6.77 mM); with Bacillus subtilis [7], “Zero growth inhibition”; in the test with Staphylococcus aureus [8], “Zero growth inhibition”; against Pseudomonas aeruginosa, 3600 µg/mL (≈ 15 mM); in the test on Escherichia coli it was 2610 µg/mL (≈ 10.9 mM). In addition, the result in test [2] was inactive.

Regarding `O=C1c2ccccc2C2OCC(Cc3ccccc3)N12` (stereo not drawn), the result (with Bacteria [9]; in test [2]) was inactive.

On to `COc1ccc(N2Cc3ccccc3C2=O)cc1`, for which the outcome (in the test on Bacteria [9]; in test [2]) was inactive.

Consider `CC(C)C1COC2c3ccccc3C(=O)N21` (stereo not drawn), for which the result with Bacteria [9] was inactive.

As for `O=C(O)C[C@@H](C(=O)O)N1Cc2ccccc2C1=O`, in the test on Bacteria [5], the outcome was Active. Moreover, the minimal inhibitory concentration (MIC) in the test with Kocuria rosea worked out at 2610 µg/mL (≈ 10.5 mM); in the test with Staphylococcus aureus [1], 3600 µg/mL (≈ 14.4 mM); in the test with Pseudomonas aeruginosa, 1620 µg/mL (≈ 6.5 mM); with Escherichia coli it was 729 µg/mL (≈ 2.93 mM); with Bacillus subtilis [4] it was 147 µg/mL (≈ 0.59 mM). Also, the result in [2] was inactive.

Regarding `O=C(O)[C@H](Cc1ccccc1)N1Cc2ccccc2C1=O`, the result in the test with Bacteria [5] was Active. Moreover, the MIC in the test on Kocuria rosea was determined as 2610 µg/mL (≈ 9.28 mM); against Pseudomonas aeruginosa it was 3600 µg/mL (≈ 12.8 mM); against Escherichia coli, 3600 µg/mL (≈ 12.8 mM); against Bacillus subtilis [4], 1180 µg/mL (≈ 4.18 mM). Moreover, the outcome in test [2] was inactive. The same compound displayed an Inhibition in the test on Staphylococcus aureus [6] of 0%.

Regarding `CC(C)CC(C(=O)O)N1Cc2ccccc2C1=O` (stereo not drawn), the outcome in the test on Bacteria [5] was Active. The MIC against Kocuria rosea is 3600 µg/mL (≈ 14.6 mM); in the test on Staphylococcus aureus [1] it was 3600 µg/mL (≈ 14.6 mM); against Pseudomonas aeruginosa, 3600 µg/mL (≈ 14.6 mM); against Escherichia coli, 3600 µg/mL (≈ 14.6 mM); against Bacillus subtilis [4] it was 729 µg/mL (≈ 2.95 mM). Besides, the result in test [2] was inactive.

With `CC(C)[C@@H](C(=O)O)N1Cc2ccccc2C1=O`, in the test with Bacteria [5], the outcome was Active. Further, the MIC was found to be 1620 µg/mL (≈ 6.94 mM) against Kocuria rosea; 3600 µg/mL (≈ 15.4 mM) with Staphylococcus aureus [1]; 3600 µg/mL (≈ 15.4 mM) in the test with Pseudomonas aeruginosa; 1620 µg/mL (≈ 6.94 mM) against Escherichia coli; 1620 µg/mL (≈ 6.94 mM) against Bacillus subtilis [4]. Also, the outcome in [2] was inactive.

Regarding `O=C1c2ccccc2C2OCC(c3ccccc3)N12` (stereo not drawn), the outcome (in the test with Bacteria [9]; in test [2]) was inactive.

Regarding `O=C(O)[C@H](CO)N1Cc2ccccc2C1=O`, the outcome with Bacteria [5] was Active. In addition, the MIC came out at 2610 µg/mL (≈ 11.8 mM) in the test on Kocuria rosea; 3600 µg/mL (≈ 16.3 mM) in the test with Staphylococcus aureus [1]; 3600 µg/mL (≈ 16.3 mM) against Pseudomonas aeruginosa; 1620 µg/mL (≈ 7.32 mM) against Escherichia coli; 729 µg/mL (≈ 3.3 mM) against Bacillus subtilis [4]. The result in test [2] was inactive.

Take `CCC(C)C(C(=O)O)N1Cc2ccccc2C1=O` (stereo not drawn): the outcome in the test with Bacteria [5] was Active. In addition, the MIC in the test on Kocuria rosea was found to be 1180 µg/mL (≈ 4.75 mM); with Staphylococcus aureus [1] it was 3600 µg/mL (≈ 14.6 mM); with Pseudomonas aeruginosa, 3600 µg/mL (≈ 14.6 mM); in the test with Escherichia coli, 1620 µg/mL (≈ 6.55 mM); in the test with Bacillus subtilis [4], 729 µg/mL (≈ 2.95 mM). The outcome in [2] was inactive.

`C[C@H](C(=O)O)N1Cc2ccccc2C1=O`: the minimum inhibitory concentration (MIC) turned out to be 2610 µg/mL (≈ 12.7 mM) in the test with Kocuria rosea; 1620 µg/mL (≈ 7.89 mM) in the test with Staphylococcus aureus [1]; 3600 µg/mL (≈ 17.5 mM) with Pseudomonas aeruginosa; 3600 µg/mL (≈ 17.5 mM) against Escherichia coli; 328 µg/mL (≈ 1.6 mM) in the test on Bacillus subtilis [4]. Also, the outcome in [2] was inactive. Also, in the test on Bacteria [3], the result was Active.

As for `CC(C)[C@H](C(=O)O)N1Cc2ccccc2C1=O`, in the test with Bacteria [5], the outcome was Active. For the same compound, the MIC in the test on Kocuria rosea amounted to 1620 µg/mL (≈ 6.94 mM); with Staphylococcus aureus [1], 3600 µg/mL (≈ 15.4 mM); in the test on Pseudomonas aeruginosa, 3600 µg/mL (≈ 15.4 mM); in the test with Escherichia coli it was 3600 µg/mL (≈ 15.4 mM); with Bacillus subtilis [4], 1620 µg/mL (≈ 6.94 mM). For the same compound, the outcome in test [2] was inactive.

Turning to `Cc1ccc(N2Cc3ccccc3C2=O)cc1`, the outcome (in the test with Bacteria [9]; in test [2]) was inactive.

On to `CC(c1ccccc1)N1Cc2ccccc2C1=O` (stereo not drawn), for which the result (in the test with Bacteria [9]; in test [2]) was inactive.
